Source: US12552825B2 (Zikani Therapeutics, Inc., priority 2019, dated 2026)
In brackets after ≈: the same amount, converted by molar mass.

Assays:
Format in all cases: cell-based
[1] = test system: S. aureus MP-12; assay: microbe, parasite or virus in culture; conditions: Staphylococcus aureus, MP12, read-out: MIC S. aureus MP-12
[2] = test system: A. baumannii MP-15; assay: MIC determination by CLSI broth dilution, A. baumannii MP-15; conditions: Acinetobacter baumannii, MP15, strain MP-15, read-out: MIC A. baumanii MP-15
[3] = test system: E. coli MP-4; assay: MIC determination by CLSI broth dilution, E. coli MP-4; conditions: Escherichia coli, MP4, CLSI broth dilution; strain MP-4
[4] = test system: K. pneumoniae MP-546; assay: MIC determination by CLSI broth dilution, K. pneumoniae MP-546; conditions: Klebsiella pneumoniae, MP546, CLSI broth dilution; strain MP-546
[5] = test system: P. aeruginosa MP-3; assay: MIC determination by CLSI broth dilution, P. aeruginosa MP-3; conditions: Pseudomonas aeruginosa, MP3, strain MP-3
[6] = test system: K. pneumoniae MP-648; assay: MIC determination by CLSI broth dilution, K. pneumoniae MP-648; conditions: Klebsiella pneumoniae, MP648, CLSI broth dilution; strain MP-648

SMILES	MIC [1] [µg/mL]	MIC [2] [µg/mL]	MIC [3] [µg/mL]	MIC [4] [µg/mL]	MIC [5] [µg/mL]	MIC [6] [µg/mL]
CO[C@]1(C)C[C@@H](C)CN(C)[C@@H](C(=O)N2CCNCC2)[C@H](C)OC(=O)C(C)(C)C(=O)[C@H](C)[C@H]1O[C@@H]1O[C@H](C)C[C@H](N(C)C)[C@H]1O [Compound 136, (2S,3R,6R,8R,9R,10R)-9-(((2S,3R,4S,6R)-4-(dimethylamino)-3-hydroxy-6-methyltetrahydro-2H-pyran-2-yl)oxy)-8-methoxy-2,4,6,8,10,12,12-heptamethyl-3-(piperazine-1-carbonyl)-1-oxa-4-azacyclotridecane-11,13-dione]	> 32	> 32	> 32	> 32	> 32	–
CO[C@]1(C)C[C@@H](C)CN(C)[C@@H](CN2CCN(S(=O)(=O)c3ccc(C)cc3)CC2)[C@H](C)OC(=O)C(C)(C)C(=O)[C@H](C)[C@H]1O[C@@H]1O[C@H](C)C[C@H](N(C)C)[C@H]1O [Compound 139, (2S,3S,6R,8R,9R,10R)-9-(((2S,3R,4S,6R)-4-(dimethylamino)-3-hydroxy-6-methyltetrahydro-2H-pyran-2-yl)oxy)-8-methoxy-2,4,6,8,10,12,12-heptamethyl-3-((4-tosylpiperazin-1-yl)methyl)-1-oxa-4-azacyclotridecane-11,13-dione]	4 to 32 (≈ 5.21 to 41.7 µM)	> 32	> 32	> 32	> 32	–
CO[C@]1(C)C[C@@H](C)CN(C)[C@@H](CN2CCN(S(=O)(=O)N(C)C)CC2)[C@H](C)OC(=O)C(C)(C)C(=O)[C@H](C)[C@H]1O[C@@H]1O[C@H](C)C[C@H](N(C)C)[C@H]1O [Compound 142, 4-(((2S,3S,6R,8R,9R,10R)-9-(((2S,3R,4S,6R)-4-(dimethylamino)-3-hydroxy-6-methyltetrahydro-2H-pyran-2-yl)oxy)-8-methoxy-2,4,6,8,10,12,12-heptamethyl-11,13-dioxo-1-oxa-4-azacyclotridecan-3-yl)methyl)-N,N-dimethylpiperazine-1-sulfonamide]	4 to 32 (≈ 5.56 to 44.4 µM)	> 32	> 32	> 32	> 32	–
CO[C@]1(C)C[C@@H](C)CN(C)[C@H](/C=C/CN2Cc3cccnc3C2)COC(=O)C(C)(C)C(=O)[C@H](C)[C@H]1O[C@@H]1O[C@H](C)C[C@H](N(C)C)[C@H]1O [Compound 152]	4 to 32 (≈ 6.07 to 48.6 µM)	> 32	< 4	–	> 32	4 to 32 (≈ 6.07 to 48.6 µM)
CO[C@]1(C)C[C@@H](C)CN(C)[C@H](/C=C/CN2CCCC2)COC(=O)C(C)(C)C(=O)[C@H](C)[C@H]1O[C@@H]1O[C@H](C)C[C@H](N(C)C)[C@H]1O [Compound 153]	4 to 32 (≈ 6.56 to 52.5 µM)	> 32	< 4	–	> 32	< 4
CCN1CCN(C[C@H]2COC(=O)C(C)(C)C(=O)[C@H](C)[C@@H](O[C@@H]3O[C@H](C)C[C@H](N(C)C)[C@H]3O)[C@](C)(OC)C[C@@H](C)CN2C)CC1 [Compound 155, (3S,6R,8R,9R,10R)-9-(((2S,3R,4S,6R)-4-(dimethylamino)-3-hydroxy-6-methyltetrahydro-2H-pyran-2-yl)oxy)-3-((4-ethylpiperazin-1-yl)methyl)-8-methoxy-4,6,8,10,12,12-hexamethyl-1-oxa-4-azacyclotridecane-11,13-dione]	4 to 32 (≈ 6.38 to 51 µM)	> 32	< 4	–	> 32	4 to 32 (≈ 6.38 to 51 µM)
CO[C@]1(C)C[C@@H](C)CN(C)[C@@H](CN2CCN(C(C)C)CC2)COC(=O)C(C)(C)C(=O)[C@H](C)[C@H]1O[C@@H]1O[C@H](C)C[C@H](N(C)C)[C@H]1O [Compound 156, (3S,6R,8R,9R,10R)-9-(((2S,3R,4S,6R)-4-(dimethylamino)-3-hydroxy-6-methyltetrahydro-2H-pyran-2-yl)oxy)-3-((4-isopropylpiperazin-1-yl)methyl)-8-methoxy-4,6,8,10,12,12-hexamethyl-1-oxa-4-azacyclotridecane-11,13-dione]	4 to 32 (≈ 6.24 to 49.9 µM)	> 32	< 4	–	> 32	4 to 32 (≈ 6.24 to 49.9 µM)
CCN1C[C@H](C)C[C@@](C)(OC)[C@H](O[C@@H]2O[C@H](C)C[C@H](N(C)C)[C@H]2O)[C@@H](C)C(=O)C(C)(C)C(=O)OC[C@@H]1CN1CCN(C)CC1 [Compound 157, (3S,6R,8R,9R,10R)-9-(((2S,3R,4S,6R)-4-(dimethylamino)-3-hydroxy-6-methyltetrahydro-2H-pyran-2-yl)oxy)-4-ethyl-8-methoxy-6,8,10,12,12-pentamethyl-3-((4-methylpiperazin-1-yl)methyl)-1-oxa-4-azacyclotridecane-11,13-dione]	4 to 32 (≈ 6.38 to 51 µM)	> 32	< 4	–	> 32	4 to 32 (≈ 6.38 to 51 µM)
CCN1CCN(C[C@H]2COC(=O)C(C)(C)C(=O)[C@H](C)[C@@H](O[C@@H]3O[C@H](C)C[C@H](N(C)C)[C@H]3O)[C@](C)(OC)C[C@@H](C)CN2CC)CC1 [Compound 158, (3S,6R,8R,9R,10R)-9-(((2S,3R,4S,6R)-4-(Dimethylamino)-3-hydroxy-6-methyltetrahydro-2H-pyran-2-yl)oxy)-4-ethyl-3-((4-ethylpiperazin-1-yl)methyl)-8-methoxy-6,8,10,12,12-pentamethyl-1-oxa-4-azacyclotridecane-11,13-dione]	4 to 32 (≈ 6.24 to 49.9 µM)	> 32	< 4	–	> 32	4 to 32 (≈ 6.24 to 49.9 µM)
CCN1C[C@H](C)C[C@@](C)(OC)[C@H](O[C@@H]2O[C@H](C)C[C@H](N(C)C)[C@H]2O)[C@@H](C)C(=O)C(C)(C)C(=O)OC[C@@H]1CN1CCN(C(C)C)CC1 [Compound 159]	4 to 32 (≈ 6.11 to 48.9 µM)	> 32	< 4	–	> 32	4 to 32 (≈ 6.11 to 48.9 µM)
